In US9901625B2, “Methods of regulating uptake and transcellular transport of leukocytes and therapeutics” (University of Maryland, College Park, priority 2011, dated 2018):

What was measured:
ICAM-1 = conditions: cited from earlier work
HUVECs = assay: Endocytosis of anti-ICAM beads by ECs in culture (HUVECs); type: cell-based, human; conditions: values normalized to controls
[1] = test system: activated HUVEC monolayers; assay: Transport of WBCs across activated HUVEC monolayers on a porous membrane (SDF1-α chemoattractant); type: cell-based, human; conditions: for WBC transmigration across HUVEC monolayer: 30 min, 37° C., WBCs counted in bottom chamber; for WBC capacity to transmigrate across the porous filter in the absence of an endothelial monolayer: no HUVEC monolayer
Method: A confluent EC monolayer from human umbilical vein ECs was grown on a porous membrane through which peripheral lymphocytes isolated from healthy individuals (wild-type WBCs) can transmigrate, driven by the presence of the chemoattractant SDF1-α in the chamber underneath the ECs. Under control conditions, 77.7±2.3% wild-type WBCs underwent transmigration by 30 min, which was abrogated when K562 cells lacking the ICAM-1- and VCAM-1-binding integrins LFA-1 and VLA-4, respectively, were used (FIG. 1A). Transport of either peripheral blood lymphocytes (control) or K562 cells lacking ICAM-1- and VCAM-1-binding integrins of white blood cells (WBCs) across activated HUVEC monolayers assessed at 37° C. by counting WBCs in the bottom chamber underneath HUVEC, 30 min after adding WBCs to the upper chamber above HUVECs (black bars). Transmigration was alternatively performed prior (control) or after blocking integrins LFA-1 or VLA-4 on peripheral blood lymphocytes using monoclonal antibodies. The horizontal dashed line in FIG. 1A represents WBC transmigration at 4° C.
Data are normalized to control values, and represent mean and standard errors of the mean (n≧3 experiments). *, P≦0.001 by Student's t test.
Further, transport of activated peripheral blood lymphocytes (WBCs) across activated HUVEC monolayers was assessed at 37° C. by counting WBCs in the bottom chamber underneath HUVEC 30 min after adding WBCs to the upper chamber above HUVECs (FIG. 2A black bars). Absence of HUVEC monolayer was a control (FIG. 2A white bars). Transmigration was performed in the absence (control) or presence of filipin, methyl-β-cyclodextrin (Cdx) or amiloride. In accord with previous works (Tilghman R W, et al. (2002) FEBS Lett 525:83-87; Barreiro O, et al. (2005) Blood 105:2852-2861; Millan et al., 2006), WBC transmigration was inhibited by methyl-β-cyclodextrin (Cdx; 48.1±4.8% of control; FIG. 2A), an agent that depletes cholesterol from cells. […] Instead, amiloride, which affects Na^+/H^+ exchangers (Kleyman T R, et al. (1988) J Membr Biol 105:1-21) and inhibits CAM-mediated endocytosis (Muro S, et al. (2003) J Cell Sci 11 6:1599-1609), reduced WBC transmigration even to a greater extent than Cdx (38.6±3.7% of control; FIG. 2A).

activated HUVECs [2] = assay: Paracellular vs transcellular transmigration of WBCs over HUVECs on coverslips (podosome scoring); type: cell-based, human; conditions: for WBC TEM (WBCs projecting podosomes into/under HUVECs): 30 min, 37° C.; for arrested WBCs located away from the EC borders / diapedesis of WBCs located away from the EC borders: EC center; for paracellular TEM (transmigrating WBCs at EC border) / transcellular TEM (transmigrating WBCs at EC center): normalized to control; for paracellular TEM (transmigrating WBCs at EC border): <3 μm from cell border; for transcellular TEM (transmigrating WBCs at EC center): ≧3 μm from cell border
Method: The role of lipid domains and CAM-mediated endocytosis in paracellular versus transcellular diapedesis of leukocytes was examined. To distinguish between paracellular and transcellular TEM, WBCs were labeled with green-fluorescent calcein and diapedesis was evaluated by fluorescence and scanning electron microscopy as WBCs projecting podosomes (versus round-shaped WBCs) into or under ECs growing over glass coverslips (FIG. 3; FIG. 4).
Data are normalized to control values (horizontal dashed lines) and represent mean and standard errors of the mean (n≧30 WBCs). *, P≦0.05; **, P≦0.01; ***, P≦0.001 by Student's t test.

activated HUVECs [3] = assay: Binding of activated WBCs to activated HUVECs (fluorescence microscopy); type: cell-based, human; conditions: 30 min, 37° C.
Source text: The horizontal dashed line represents binding of negative control K562 WBCs, which lack ICAM-I- and VCAM-1-binding integrins. Data are normalized to control values, and represent mean and standard errors of the mean (n≧3 experiments). *, P≦0.001 by Student's t test.

activated HUVECs [4] = assay: Recruitment of molecules at sites of endothelial ICAM-1 engagement by anti-ICAM beads; type: cell-based, human; conditions: 15 min

Molecule: CCCCC[C@@H](O)[C@H]1C(=O)O[C@H](C)[C@@H](O)/C=C/C=C/C=C/C=C/C=C(\C)[C@@H](O)C[C@H](O)C[C@H](O)C[C@H](O)C[C@H](O)C[C@H](O)C[C@@H]1O [filipin]
- Formation of endocytic vesicles upon ICAM-1 engagement by anti-ICAM particles (ICAM-1): not affected
- Internalization (%) of anti-ICAM beads (HUVECs): 107.2 ± 1.5%
- WBC transmigration across HUVEC monolayer [1]: 88.0±7.7 % of control
- WBC TEM (WBCs projecting podosomes into/under HUVECs) (activated HUVECs [2]): 108.7±8.6 % of control

Molecule: methyl-β-cyclodextrin [Cdx]
- affected WBC binding to ECs (activated HUVECs [3]): Neither
- ICAM-1 enrichment in areas of bead engulfment (activated HUVECs [4]): 43 % decrease
- WBC transmigration across HUVEC monolayer [1]: 48.1±4.8 % of control
- WBC capacity to transmigrate across the porous filter in the absence of an endothelial monolayer [1]: Neither Cdx nor amiloride impaired
- WBC TEM (WBCs projecting podosomes into/under HUVECs) (activated HUVECs [2]): 80.5±6.8 % of control
- arrested WBCs located away from the EC borders (activated HUVECs [2]): 170.5±36.2 % of control
- diapedesis of WBCs located away from the EC borders (activated HUVECs [2]): 71.5±14.6 % of control
- paracellular TEM (transmigrating WBCs at EC border) (activated HUVECs [2]): 124.9±17.1%
- transcellular TEM (transmigrating WBCs at EC center) (activated HUVECs [2]): 78.3±14.9%

Molecule: CCN(c1nc(N)c(C(=O)N=C(N)N)nc1Cl)C(C)C [EIPA, 5′-(N-ethyl-N-isopropyl)amiloride]
- ceramide enrichment in areas of bead engulfment (activated HUVECs [4]): 35.6 % decrease

Molecule: CN(C)CCCN1c2ccccc2CCc2ccccc21 [imipramine]
- Internalization (%) of anti-ICAM beads (HUVECs): 61.9 ± 6.7 %
- ceramide enrichment in areas of bead engulfment (activated HUVECs [4]): 23.6 % decrease
- WBC TEM (WBCs projecting podosomes into/under HUVECs) (activated HUVECs [2]): 46.6±7.6 % of control
- level of transcellular TEM (activated HUVECs [2]; FIG. 14C): decreased the level of transcellular TEM
- paracellular TEM (activated HUVECs [2]; FIG. 14C): paracellular TEM increased

Molecule: N=C(N)NC(=O)c1nc(Cl)c(N)nc1N [amiloride]
- affected WBC binding to ECs (activated HUVECs [3]): Neither
- Internalization (%) of anti-ICAM beads (HUVECs): 13.8 ± 3.3 %
- ICAM-1 enrichment in areas of bead engulfment (activated HUVECs [4]): 22.9 % decrease
- WBC transmigration across HUVEC monolayer [1]: 38.6±3.7 % of control
- WBC capacity to transmigrate across the porous filter in the absence of an endothelial monolayer [1]: Neither Cdx nor amiloride impaired
- WBC TEM (WBCs projecting podosomes into/under HUVECs) (activated HUVECs [2]): 63.8±7.3 % of control
- arrested WBCs located away from the EC borders (activated HUVECs [2]): 209.1±68.1 % of control
- diapedesis of WBCs located away from the EC borders (activated HUVECs [2]): 56.0±27.5 % of control
- paracellular TEM (transmigrating WBCs at EC border) (activated HUVECs [2]): 139.6±34.1%
- transcellular TEM (transmigrating WBCs at EC center) (activated HUVECs [2]): 65.5±29.7%
